Consider 10 compounds from patent US10494376B2, “Tetrahydroisoquinoline derived PRMT5-inhibitors” (CTXT PTY LTD, priority 2014, dated 2019).

In assay [1] the target is Full-length PRMT5 enzyme (NCBI Reference sequence NP_006100.2) co-expressed with His6-MEP50 (Homo sapiens (Human), UniProt O14744). Nature of the assay: Revised PRMT5 Biochemical Assay. Conditions: 1 μM peptide substrate, 1 μM S-Adenosyl methionine, 4 hours at 37 degree Celsius, Transcreener EPIGEN fluorescence polarisation. The essentials:
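Full-length PRMT5 co-expressed with His6-MEP50 in insect cells (15 ng/reaction) was run with 1 μM H4-derived peptide and 1 μM SAM in PBS, 0.01% Tween-20, 0.01% albumin and 1 mM DTT for 4 h at 37 °C. Product was read by Transcreener EPIGEN fluorescence polarisation, and IC50 came from a 4-parameter fit.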

In assay [2] the test system is symmetrical dimethylation of arginine (Di-Methyl Histone H4 Arginine 3) in cell line TE11. Nature of the assay: Revised PRMT5 Biomarker Assay (Di-Methyl Histone H4 Arginine 3 immunofluorescence). The format is cell-based. Conditions: Homo sapiens, TE-11, TE11 cells, 72 hours. As to the method: Compounds of the invention may be tested for potency to inhibit symmetrical dimethylation of arginine in the following assay:
The cell line TE11 was seeded at a density of 6,000 cells per well in 96 well optical quality tissue culture plates in DME medium and 10% foetal bovine serum, and allowed to adhere for 5 hours under standard culture conditions (37 degree Celsius, 5% CO2). […] After incubation for 72 hours, the cells were fixed with 3.7% formaldehyde in PBS for 30 minutes at room temperature, washed with phosphate buffer saline and blocked with Odyssey blocking buffer (LI-COR, Lincoln, Nebr.). Rabbit anti-Di-Methyl Histone H4 Arginine 3 specific antibody (Epigentek) in Odyssey blocking buffer was added and incubated for 14 hours at 4 degree Celsius. […] Alternatively, the plates were imaged on a PerkinElmer Phenix high content imaging platform. […] The resulting mean intensity per cell was directly converted to percent inhibition as outlined above (IC50, imager based).

[3] abbreviates: PerkinElmer Phenix high content imaging, mean intensity per cell, read-out: IC50 - image based.
Where [4] appears, read: PerkinElmer Envision fluorescence intensity, corrected for Hoechst 33342, read-out: IC50 - plate-reader based.

Counter-ions that a name gives are not always drawn. Like-named read-outs stand apart in the source and are kept apart here.

Chain of Full-length PRMT5 enzyme (NCBI Reference sequence NP_006100.2) co-expressed with His6-MEP50 (O14744 whole entry): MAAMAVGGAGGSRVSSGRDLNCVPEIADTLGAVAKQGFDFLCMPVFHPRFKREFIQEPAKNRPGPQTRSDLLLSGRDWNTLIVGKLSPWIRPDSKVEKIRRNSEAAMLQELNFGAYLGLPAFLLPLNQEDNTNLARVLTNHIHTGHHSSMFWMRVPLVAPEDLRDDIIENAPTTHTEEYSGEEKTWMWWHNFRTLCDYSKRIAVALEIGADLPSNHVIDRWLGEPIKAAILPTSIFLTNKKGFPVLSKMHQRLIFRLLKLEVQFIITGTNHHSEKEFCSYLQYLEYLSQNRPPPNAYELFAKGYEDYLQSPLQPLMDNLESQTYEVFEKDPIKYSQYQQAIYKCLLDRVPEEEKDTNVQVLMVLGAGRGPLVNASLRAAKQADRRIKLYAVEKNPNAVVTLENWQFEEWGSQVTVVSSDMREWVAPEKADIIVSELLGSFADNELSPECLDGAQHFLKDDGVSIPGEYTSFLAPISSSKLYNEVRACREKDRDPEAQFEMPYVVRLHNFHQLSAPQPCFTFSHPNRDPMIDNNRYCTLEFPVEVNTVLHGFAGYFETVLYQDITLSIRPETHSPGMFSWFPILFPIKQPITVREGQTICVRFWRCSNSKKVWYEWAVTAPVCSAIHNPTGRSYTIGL
Chain of Full-length PRMT5 enzyme (NCBI Reference sequence NP_006100.2) co-expressed with His6-MEP50 (Q9BQA1 whole entry partner): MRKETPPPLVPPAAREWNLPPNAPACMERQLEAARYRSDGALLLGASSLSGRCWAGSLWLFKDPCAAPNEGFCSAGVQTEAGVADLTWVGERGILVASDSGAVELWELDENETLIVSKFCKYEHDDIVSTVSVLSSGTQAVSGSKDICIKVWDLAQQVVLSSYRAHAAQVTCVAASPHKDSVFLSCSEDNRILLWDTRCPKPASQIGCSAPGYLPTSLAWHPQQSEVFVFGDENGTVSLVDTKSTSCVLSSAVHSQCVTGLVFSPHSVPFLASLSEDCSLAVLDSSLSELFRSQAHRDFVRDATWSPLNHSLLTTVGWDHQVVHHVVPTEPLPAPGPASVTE

As to `CCOc1cc(CC(=O)N2CCCC2)ccc1C(=O)NC[C@@H](O)[C@@H]1Cc2ccccc2CN1` [Example 79, 2-Ethoxy-N-((R)-2-hydroxy-2-((S)-1,2,3,4-tetrahydroisoquinolin-3-yl)ethyl)-4-(2-oxo-2-(pyrrolidin-1-yl)ethyl)benzamide hydrochloride], the IC50 – broadly, the concentration that gives 50% inhibition – in assay [1] came to 168 nM; in assay [2] (setting [3]) it was 3 nM.

Turning to `CCOc1c(C(=O)NC[C@@H](O)[C@@H]2Cc3ccccc3CN2)ccc(C(=O)N2CCOCC2)c1C` [Example 80, 2-Ethoxy-N-((R)-2-hydroxy-2-((S)-1,2,3,4-tetrahydroisoquinolin-3-yl)ethyl)-3-methyl-4-(morpholine-4-carbonyl)benzamide hydrochloride], the results for the IC50 in assay [1] and in assay [2] (setting [4]) were 161 nM and 3 nM, respectively.

In the case of `O=C(NC[C@@H](O)[C@@H]1Cc2ccccc2CN1)c1ccc(C(=O)N2C3CCC2COC3)cc1F` [Example 81, 4-(3-Oxa-8-azabicyclo[3.2.1]octane-8-carbonyl)-2-fluoro-N-((R)-2-hydroxy-2-((S)-1,2,3,4-tetrahydroisoquinolin-3-yl)ethyl)benzamide hydrochloride], the IC50 came out at 51 nM in assay [1] and 3 nM in assay [2] (setting [4]).

In the case of `CCOc1cc(C(=O)N2C3CCC2COC3)ncc1C(=O)NC[C@@H](O)[C@@H]1Cc2ccccc2CN1` [Example 82, 6-(3-Oxa-8-azabicyclo[3.2.1]octane-8-carbonyl)-4-ethoxy-N-((R)-2-hydroxy-2-((S)-1,2,3,4-tetrahydroisoquinolin-3-yl)ethyl)nicotinamide dihydrochloride], the IC50 worked out at 106 nM in assay [1] and 8 nM in assay [2] (setting [3]).

Turning to `O=C(NC[C@@H](O)[C@@H]1Cc2ccccc2CN1)c1ccc(C(=O)N2C3CCC2COC3)cc1Cl` [Example 83, 4-(3-Oxa-8-azabicyclo[3.2.1]octane-8-carbonyl)-2-chloro-N-((R)-2-hydroxy-2-((S)-1,2,3,4-tetrahydroisoquinolin-3-yl)ethyl)benzamide], the IC50 was found to be 65 nM in assay [1] and 4 nM in assay [2] (setting [4]).

For the compound `O=C(NC[C@@H](O)[C@@H]1Cc2ccccc2CN1)c1ccc2nc(C(F)(F)F)[nH]c2c1` [Example 84, N-((R)-2-Hydroxy-2-((S)-1,2,3,4-tetrahydroisoquinolin-3-yl)ethyl)-2-(trifluoromethyl)-1H-benzo[d]imidazole-6-carboxamide dihydrochloride], the results for the half-maximal inhibitory concentration (IC50) in assay [1] and in assay [2] (setting [4]) were 124 nM and 81 nM, respectively.

On to `COC(=O)N1CCC(Oc2ccc(C(=O)NC[C@@H](O)[C@@H]3Cc4ccccc4CN3)cn2)CC1` [Example 100, Methyl 4-((5-(((R)-2-hydroxy-2-((S)-1,2,3,4-tetrahydroisoquinolin-3-yl)ethyl)carbamoyl)pyridin-2-yl)oxy)piperidine-1-carboxylate], for which the 50% inhibitory concentration (IC50) in assay [1] worked out at 66 nM; in assay [2] (setting [3]), 11 nM.

For `O=C(NC[C@@H](O)[C@@H]1Cc2ccccc2CN1)c1ccc(N2CCOCC2)nc1` [Example 101, N—((R)-2-Hydroxy-2-((S)-1,2,3,4-tetrahydroisoquinolin-3-yl)ethyl)-6-morpholinonicotinamide], the half-inhibitory concentration (IC50) was determined as 104 nM in assay [1] and 10 nM in assay [2] (setting [3]).

Turning to `CC(=O)N1CCC(Oc2cc(C(=O)NC[C@@H](O)[C@@H]3Cc4ccccc4CN3)ccn2)CC1` [Example 102, 2-((1-Acetylpiperidin-4-yl)oxy)-N—((R)-2-hydroxy-2-((S)-1,2,3,4-tetrahydroisoquinolin-3-yl)ethyl)isonicotinamide], the IC50 in assay [1] worked out at 68 nM; in assay [2] (setting [4]), 5 nM.

Regarding `O=C(NC[C@@H](O)[C@@H]1Cc2ccccc2CN1)c1ccc(C(=O)N2C3CCCC2COC3)cc1` [Example 103, 4-(3-Oxa-9-azabicyclo[3.3.1]nonane-9-carbonyl)-N—((R)-2-hydroxy-2-((S)-1,2,3,4-tetrahydroisoquinolin-3-yl)ethyl)benzamide], the IC50 turned out to be 65 nM in assay [1] and 4 nM in assay [2] (setting [4]).
